Results taken from patent publication US20190290675A1, “GLYCAN POLYMERS AND RELATED METHODS THEREOF” (priority 2016, published 2019).

Tests used:
Test in all cases: single strain growth assay, enzymatically synthesized glycans and parent sugars
Assay type in all cases: cell-based
Settings in all cases: 0.5% w/v, 37° C., 18-48 hours, anaerobic; OD600 blanked against no glycan or sugar
[1] = system: Clostridium scindens ATCC 35704 “CSC.32”
Protocol: (§1) An in vitro assay was performed to assess the ability of various bacterial strains, including commensals and pathogens of the gastrointestinal tract, to utilize enzymatically synthesized glycans (i.e., glycan polymers) and the sugars from which they were derived as growth substrates. The assay was designed to determine if enzymatically synthesized glycans differ from the sugars from which they are derived in how well they support growth of potentially beneficial or harmful bacterial members of the human microbiome. Bacterial strains were handled at all steps in an anaerobic chamber (AS-580, Anaerobe Systems) featuring a palladium catalyst. The chamber was initially made anaerobic by purging with an anaerobic gas mixture of 5% hydrogen, 5% carbon dioxide and 90% nitrogen and subsequently maintained in an anaerobic state using this same anaerobic gas mixture. Anaerobicity of the chamber was confirmed daily using Oxoid anaerobic indicator strips that change color in the presence of oxygen. All culture media, assay plates, other reagents and plastic consumables were pre-reduced in the anaerobic chamber for at least 24-48 hours prior to contact with bacteria. […] Bacterial isolates were obtained from the American Type Culture Collection (ATCC) and Leibniz Institute DSMZ-German Institute of Microorganisms and Cell Cultures (DSMZ). […] Inocula were prepared by determining the optical density of each culture at 600 nM (OD600) in a Costar 3370 polystyrene 96-well flat-bottom assay plate using a Biotek Synergy 2 plate reader with Gen5 2.0 All-In-One Microplate Reader Software according to manufacturer's protocol, and diluting the cells to OD600 0.01 final in defined and semi-defined media that were prepared without sugars. […]

[2] = system: Dorea longicatena DSM 13814 “DLO.76”
Protocol: as §1

[3] = system: Dorea formicigenerans ATCC 27755 “DFO.36”
Protocol: as §1

[4] = system: Parabacteroides distasonis ATCC 8503 “PDI.6”
Protocol: as §1

[5] = system: Blautia hansenii ATCC 27752 “BHA.20”
Protocol: An in vitro assay was performed to assess the ability of various bacterial strains, including commensals and pathogens of the gastrointestinal tract, to utilize enzymatically synthesized glycans (i.e., glycan polymers) and the sugars from which they were derived as growth substrates. The assay was designed to determine if enzymatically synthesized glycans differ from the sugars from which they are derived in how well they support growth of potentially beneficial or harmful bacterial members of the human microbiome. Bacterial strains were handled at all steps in an anaerobic chamber (AS-580, Anaerobe Systems) featuring a palladium catalyst. The chamber was initially made anaerobic by purging with an anaerobic gas mixture of 5% hydrogen, 5% carbon dioxide and 90% nitrogen and subsequently maintained in an anaerobic state using this same anaerobic gas mixture. Anaerobicity of the chamber was confirmed daily using Oxoid anaerobic indicator strips that change color in the presence of oxygen. All culture media, assay plates, other reagents and plastic consumables were pre-reduced in the anaerobic chamber for at least 24-48 hours prior to contact with bacteria. […] Inocula were prepared by determining the optical density of each culture at 600 nM (OD600) in a Costar 3370 polystyrene 96-well flat-bottom assay plate using a Biotek Synergy 2 plate reader with Gen5 2.0 All-In-One Microplate Reader Software according to manufacturer's protocol, and diluting the cells to OD600 0.01 final in defined and semi-defined media that were prepared without sugars. […]

[6] = system: Bacteroides thetaiotaomicron ATCC 29741 “BTH.8”
Protocol: as §1

Structure (SMILES) | Growth, CSC.32 [1] | Growth, DLO.76 [2] | Growth, DFO.36 [3] | Growth, PDI.6 [4] | Growth, BHA.20 [5] | Growth, BTH.8 [6]
OC[C@H]1O[C@H](OC[C@H]2O[C@H](O[C@]3(CO)O[C@H](CO)[C@@H](O)[C@@H]3O)[C@H](O)[C@@H](O)[C@@H]2O)[C@H](O)[C@@H](O)[C@H]1O [raffinose] | − (<0.1) | − (<0.1) | − (<0.1) | +++ (>0.7) | ++ (0.3-0.7) | − (<0.1)
OC[C@H]1O[C@@H](O[C@@H]2[C@@H](CO)OC(O)(CO)[C@H]2O)[C@H](O)[C@@H](O)[C@H]1O (mixture of isomers) [lactulose] | − (<0.1) | − (<0.1) | − (<0.1) | ++ (0.3-0.7) | +++ (>0.7) | + (0.1-0.3)
OC[C@H]1O[C@@](CO)(O[C@H]2O[C@H](CO)[C@@H](O)[C@H](O)[C@H]2O)[C@@H](O)[C@@H]1O [sucrose] | − (<0.1) | +++ (>0.7) | − (<0.1) | ++ (0.3-0.7) | − (<0.1) | +++ (>0.7)
